{"source": "patent US20250032465A1", "about": "“METHODS OF TREATING CNS DISORDERS” (HANGZHOU HIGHLIGHTLL PHARMACEUTICAL CO., LTD, priority 2021, published 2025)", "key": {"BV2 cells [1]": {"test_system": "BV2 cells", "assay": "IL-6, TNF and MCP-1 production in LPS-stimulated BV2 cells (CBA assay)", "format": "cell-based", "conditions": "Mus musculus, BV-2, LPS-treated BV2 cells"}, "TYK2": {"target": "T1, TYK2 (Homo sapiens, UniProt P29597)", "T1 construct": "purchased Reaction Biology Corp, Malvern, PA (contract testing)", "T1 sequence (P29597 whole entry)": "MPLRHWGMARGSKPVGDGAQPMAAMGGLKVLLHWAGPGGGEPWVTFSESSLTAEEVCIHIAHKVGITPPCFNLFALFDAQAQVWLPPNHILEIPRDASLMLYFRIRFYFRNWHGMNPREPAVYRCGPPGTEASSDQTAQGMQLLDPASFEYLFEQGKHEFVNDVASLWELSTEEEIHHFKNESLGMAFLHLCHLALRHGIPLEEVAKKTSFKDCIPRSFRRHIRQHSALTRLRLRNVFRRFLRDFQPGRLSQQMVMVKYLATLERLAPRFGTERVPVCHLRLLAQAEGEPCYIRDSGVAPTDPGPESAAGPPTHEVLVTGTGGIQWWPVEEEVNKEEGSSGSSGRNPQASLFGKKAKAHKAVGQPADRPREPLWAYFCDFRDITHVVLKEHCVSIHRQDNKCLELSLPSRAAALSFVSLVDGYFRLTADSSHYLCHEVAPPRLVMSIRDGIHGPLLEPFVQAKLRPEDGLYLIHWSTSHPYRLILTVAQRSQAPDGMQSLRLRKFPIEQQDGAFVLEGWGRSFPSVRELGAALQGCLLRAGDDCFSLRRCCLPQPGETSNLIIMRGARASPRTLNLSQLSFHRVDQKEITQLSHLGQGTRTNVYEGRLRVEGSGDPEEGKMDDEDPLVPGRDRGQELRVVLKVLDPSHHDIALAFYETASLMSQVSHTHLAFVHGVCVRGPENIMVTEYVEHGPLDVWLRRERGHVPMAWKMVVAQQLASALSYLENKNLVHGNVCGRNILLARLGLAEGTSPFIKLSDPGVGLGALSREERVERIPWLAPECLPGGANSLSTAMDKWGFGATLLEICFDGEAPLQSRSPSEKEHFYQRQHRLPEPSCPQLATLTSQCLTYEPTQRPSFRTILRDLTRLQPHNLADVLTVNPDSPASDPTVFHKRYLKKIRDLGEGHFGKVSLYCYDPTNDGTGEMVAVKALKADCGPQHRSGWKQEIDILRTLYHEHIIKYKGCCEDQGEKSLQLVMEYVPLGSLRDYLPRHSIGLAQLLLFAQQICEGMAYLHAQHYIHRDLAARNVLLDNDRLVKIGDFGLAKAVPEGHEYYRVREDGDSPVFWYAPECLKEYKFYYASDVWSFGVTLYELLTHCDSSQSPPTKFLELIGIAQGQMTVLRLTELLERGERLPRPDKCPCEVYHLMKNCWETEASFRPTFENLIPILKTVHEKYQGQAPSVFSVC", "assay": "TYK2 biochemical test (33P-ATP filter binding, Reaction Biology)", "conditions": "read-out: Inhibition of TYK2 (IC50)", "procedure": "(§1) The tests were conducted by Reaction Biology Corp, Malvern, PA (Anastassiadis et al. Nat Biotechnol. 2011; 29(11):1039-45). The step is briefly described as follows, using the basic reaction buffer: 20 mM Hepes (pH 7.5), 10 mM MgCl2, 1 mM EGTA, 0.02% Brij35, 0.02 mg/ml BSA, 0.1 mM Na3VO4, 2 mM DTT and 1% DMSO. The required cofactor was added to each kinase reaction respectively. Each reaction was performed according to the following reaction steps: 1) Preparing the designated substrate in the newly prepared basic reaction buffer; 2) Transferring the required cofactor to the above matrix solution; 3) Transferring the designated kinase to the substrate solution and mixing well slightly; 4) Transferring a compound of Formula (I) in DMSO to the kinase reaction mixture with Acoustic technique (Echo550; nanoliter range), culturing for 20 minutes at room temperature; 5) Introducing ^33P-ATP (specific activity: 10 μCi/μl) to the reaction mixture to trigger a reaction; 6) Culturing at room temperature and conducting a kinase reaction for 2 hours; 7) Plotting the reaction on P81 ion exchange paper; and 8) Testing the kinase activity with a filter binding assay. The results shown in Table 1 indicate that compounds of Formulae (I)-(III) are potent and selective TYK2/JAK1 inhibitors."}, "MOG35-55-EAE model": {"test_system": "MOG35-55-EAE model", "assay": "MOG35-55 induced experimental autoimmune encephalomyelitis (MOG35-55-EAE) model", "format": "in vivo, female C57BL/6 mice", "description": "MOG-EAE is one of the most common and widely used animal models for multiple sclerosis, which is a chronic inflammatory disease in the central nervous system that is characterized by axon demyelination and degeneration. In this mouse model, animals were immunized with myelin oligodendrocyte glycoprotein (MOG) peptide in Complete Freund's Adjuvant (CFA) firstly and then boosted with Pertussis Toxin. Upon immunization, mice developed chronic inflammation in the central nervous system, which led to axon dysfunction, and associated movement disabilities and paralysis. The disease onset usually starts from Day 10 and lasts for 20-30 days. This model allows specific investigation of the neuroinflammatory signaling pathways and evaluation of the efficacy of novel anti-inflammatory therapies. […] Mortality and observed clinical signs were recorded for individual animals in detail. Body weight and disease activity index (DAI) were measured twice per week after disease induction and then every other day starting from Day 10 to the study end. The DAI was scored according to the scoring criteria: 0=normal; 1=loss of tail tone; 2=loss of tail tone and hind limb weakness; 3=severe weakness in both limbs/single limb paralysis; 4=paralysis of two or more limbs; 5=death. […] The body weights and disease score were measured by using StudyDirector™ software (version 3.1.399.19). […]"}, "[2]": {"assay": "Brain penetration in rats", "format": "in vivo", "conditions": "male, rat, 10 mg/kg oral gavage, 8 hour post-dosing", "procedure": "This testing was performed to test the ability of compounds to penetrate the blood-brain-barrier in rats. The testing was performed according to the following procedure: 1) For each compound, take 3 male rats with body weight of 217-228 g, formulate compound using 0.5% HPMC/water suspension at concentration of 1 mg/ml; 2) After fasting overnight, administer compound at 10 mg/kg by oral gavage; 3) Take plasma samples at 1, 2, 4, 8 hours post-dosing; 4) At 8 hour post-dosing, also take brain tissues and cerebrospinal fluid (CSF); 5) Analyze compound concentration in plasma, brain tissue, and CSF using LC-MS/MS method."}, "JAK1": {"target": "T2, JAK1 (Homo sapiens, UniProt P23458)", "T2 construct": "purchased Reaction Biology Corp, Malvern, PA (contract testing)", "T2 sequence (P23458 whole entry)": "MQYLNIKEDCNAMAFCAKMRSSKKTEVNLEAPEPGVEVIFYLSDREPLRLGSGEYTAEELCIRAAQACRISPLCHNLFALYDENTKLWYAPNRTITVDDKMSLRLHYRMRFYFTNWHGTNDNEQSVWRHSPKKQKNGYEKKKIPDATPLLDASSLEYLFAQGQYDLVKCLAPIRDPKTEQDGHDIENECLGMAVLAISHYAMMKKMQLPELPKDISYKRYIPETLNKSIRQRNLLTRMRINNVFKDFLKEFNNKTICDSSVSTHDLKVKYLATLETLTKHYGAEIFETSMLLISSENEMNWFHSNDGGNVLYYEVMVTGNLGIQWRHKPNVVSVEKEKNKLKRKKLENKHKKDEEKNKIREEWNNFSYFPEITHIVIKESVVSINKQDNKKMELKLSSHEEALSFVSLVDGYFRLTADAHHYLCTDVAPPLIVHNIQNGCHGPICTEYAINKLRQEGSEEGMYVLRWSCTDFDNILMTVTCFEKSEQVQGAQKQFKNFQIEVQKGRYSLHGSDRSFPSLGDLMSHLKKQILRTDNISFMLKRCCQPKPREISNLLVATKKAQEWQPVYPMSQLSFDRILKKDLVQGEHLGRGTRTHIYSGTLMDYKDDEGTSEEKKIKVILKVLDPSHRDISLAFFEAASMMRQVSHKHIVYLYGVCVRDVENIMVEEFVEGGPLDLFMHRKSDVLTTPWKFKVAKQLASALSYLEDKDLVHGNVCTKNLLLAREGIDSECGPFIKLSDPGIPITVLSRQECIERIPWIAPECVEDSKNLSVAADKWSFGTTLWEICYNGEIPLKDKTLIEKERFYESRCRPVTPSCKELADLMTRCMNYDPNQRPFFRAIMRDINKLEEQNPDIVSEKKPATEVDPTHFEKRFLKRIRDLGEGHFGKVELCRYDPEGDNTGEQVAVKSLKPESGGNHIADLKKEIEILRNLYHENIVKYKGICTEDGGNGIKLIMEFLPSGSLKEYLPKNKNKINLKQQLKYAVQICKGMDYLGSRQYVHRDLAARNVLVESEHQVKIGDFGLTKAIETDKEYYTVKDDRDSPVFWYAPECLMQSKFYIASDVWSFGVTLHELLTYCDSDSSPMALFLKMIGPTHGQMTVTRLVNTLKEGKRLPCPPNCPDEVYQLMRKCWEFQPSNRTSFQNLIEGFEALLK", "assay": "JAK1 biochemical test (33P-ATP filter binding, Reaction Biology)", "conditions": "read-out: Inhibition of JAK1 (IC50)", "procedure": "as §1"}, "HT22 cells [3]": {"test_system": "HT22 cells", "assay": "Viability of HT22 cells with LPS but without BV2 microglia", "format": "cell-based", "conditions": "1.7 μM, presence or absence of LPS (200 ng/ml, 96 h)", "procedure": "(§2) This testing was performed to test the ability of compounds to alleviate the injury of HT22 cells induced by LPS activated BV2 cells. The testing was performed according to the following procedure: 1) Microglia BV2 cells were co-cultured on transwell inserts with HT22hippocampal neurons. BV2 cells were stimulated with LPS (200 ng/ml) for 96 h after treatment with a compound of Formula (II) at 1.7 μM. 2) HT22 cells were pre-treated with a compound of Formula (II) at 1.7 μM for 30 min and subsequently stimulated with LPS (200 ng/ml) for 96 h. 3) BV2 cells were treated using LPS. IL-6, TNF and MCP-1 productions were measured in cell supernatants using CBA assay.\n(§3) The protective effects of a compound of Formula (II) on microglial activation-induced neuronal death were evaluated in a BV2 microglia/HT22 neuron co-culture. Following stimulation of BV2 microglia with LPS (200 ng/mL), there was a marked reduction in the viability of co-cultured HT22 cells."}, "BV2 cells [4]": {"test_system": "BV2 cells", "assay": "IL-6, TNF and MCP-1 production in LPS-stimulated BV2 cells (CBA assay)", "format": "cell-based", "conditions": "for inhibition at 1.7 µM: Mus musculus, BV-2, LPS-treated BV2 cells", "procedure": "as §2\nIn LPS-treated BV2 cells, there was a marked increase in IL-6, TNF and MCP-1 production, when compared to unstimulated cells."}, "HT22 cells [5]": {"test_system": "HT22 cells", "assay": "HT22 neuronal cell death induced by LPS activated BV2 microglia (transwell co-culture)", "format": "cell-based", "conditions": "1.7 μM pre-treatment of BV2, LPS 200 ng/ml, 96 h", "procedure": "as §2, §3"}, "[6]": {"conditions": "read-out: Inhibition of IL-6 production"}, "[7]": {"conditions": "read-out: Inhibition of MCP-1 production"}, "[8]": {"conditions": "read-out: Inhibition of TNF production"}}, "note": "Entries after “also recorded” stand apart in the source; their conditions may differ. Read-outs that look alike come from different tables or passages of the source."}
{"smiles": "Cc1nc2cnc3ccoc3c2n1[C@H]1CC[C@H](CC#N)OC1", "note": "[Formula (II)]", "values": [{"measurement": "inhibition at 5 µM", "setting": "BV2 cells [1]; [6]", "value": 72.4, "unit": "%"}, {"measurement": "inhibition at 5 µM", "setting": "BV2 cells [1]; [7]", "value": 83.3, "unit": "%"}, {"measurement": "inhibition at 5 µM", "setting": "BV2 cells [1]; [8]", "value": 81.2, "unit": "%"}, {"measurement": "inhibition at 15 µM", "setting": "BV2 cells [1]; [6]", "value": 83.6, "unit": "%"}, {"measurement": "inhibition at 15 µM", "setting": "BV2 cells [1]; [7]", "value": 111, "unit": "%"}, {"measurement": "inhibition at 15 µM", "setting": "BV2 cells [1]; [8]", "value": 118, "unit": "%"}, {"measurement": "IC50", "setting": "TYK2", "value": "< 10", "unit": "nM"}, {"measurement": "Disease Activity Index (DAI)", "setting": "MOG35-55-EAE model; 30 mg/kg BID oral gavage from Day 10, vs vehicle, Days 10-26", "value": "reduced disease activity; also recorded: lower DAI"}, {"measurement": "Body weight loss", "setting": "MOG35-55-EAE model; 30 mg/kg BID oral gavage, mice with EAE", "value": "significantly reduced body weight loss"}, {"measurement": "Kp at 8 h", "setting": "[2]; CSF/plasma, read-out: CSF (ng/ml)/ Plasma (ng/ml)", "value": "> 0.15"}, {"measurement": "Kp at 8 h", "setting": "[2]; brain/plasma, read-out: Brain (ng/ml)/ Plasma (ng/ml)", "value": "> 0.4"}, {"measurement": "IC50", "setting": "JAK1", "value": "< 10", "unit": "nM"}, {"measurement": "Viability of HT22 cells", "setting": "HT22 cells [3]", "value": "did not affect the viability"}, {"measurement": "IL-6, TNF and MCP-1 production (in words)", "setting": "BV2 cells [4]; LPS-stimulated BV2 cells, pre-treatment", "value": "dose-dependently reduced; also recorded: inhibited"}, {"measurement": "inhibition at 1.7 µM", "setting": "BV2 cells [4]; [6]", "value": 49.1, "unit": "%"}, {"measurement": "inhibition at 1.7 µM", "setting": "BV2 cells [4]; [7]", "value": 56.9, "unit": "%"}, {"measurement": "inhibition at 1.7 µM", "setting": "BV2 cells [4]; [8]", "value": 39.9, "unit": "%"}, {"measurement": "Toxicity to HT22 cells (neuronal cell death) from LPS stimulation of BV2 microglia", "setting": "HT22 cells [5]", "value": "significantly reduced toxicity to HT22 cells; also recorded: reduced HT22 neuronal cell death"}]}
